Entries after “also recorded” stand apart in the source; their conditions may differ.
How the values were obtained:
Assay type in all cases: cell-based, human
PMA-treated U937 cells = assay: Foam cell formation, Oil red O stain analysis; conditions: oxLDL 50 μg/mL, adenosine 100 μM, 24 h
Procedure: (§1) U937 cells were induced to differentiate into macrophages by treatment with phorbol myristate acetate (PMA, 40 nM) for 72 h. Before use oxLDL was dialyzed against 1 L of 0.15 M sodium chloride and 0.3 mM EDTA (pH 7.4) for 12 h at 4° C., then against RPMI 1640 medium (two changes, 1 L/each change) for 24 h. All dialyses were carried out with Pierce Slide-A-Lyzer cassettes (10,000 molecular weight cut-off). After dialysis, lipoproteins were sterilized by passing them through a 0.45 μm (pore-size) filter, then added (50-100 μg/mL, Intracel, Frederick, Md.) to PMA-treated U937 cells and incubated in serum-free RPMI 1640 for 48 h.
Treatment of PMA-differentiated U937 cells with test agents was performed 2 h before addition of oxLDL. After exposition to oxLDL under hypoxia for 24 h, U937 cells were fixed in phosphate buffered saline-buffered 4% paraformaldehyde solution for 15 min and then air dried. Oil red O (in 60% isopropanol) staining was done for 15 min essentially as described previously by Kalayoglu and Byrne (Infect. Immun. 1998, 66, 5067-5072). Cells were viewed under a bright-field microscope in 100× fields using a Nikon's Eclipse E800 microscope. Foam cells were defined as macrophages in which cytoplasm was filled with Oil red O-stainable lipid droplets.

IL-8 = IL-8 secretion by foam cells, ELISA; conditions: for block of adenosine-induced IL-8 increase: antagonist 100 nM
Procedure: as §1
(§2) The levels of VEGF and IL-8 protein secreted by the cells in the medium were determined by VEGF and IL-8 ELISA kits (R&D Systems) according to the manufacturer's instructions. The data were presented as mean±SD from three independent experiments.

VEGF = VEGF secretion by foam cells, ELISA; conditions: adenosine 100 μM, 24 h, hypoxic; for effect on adenosine-induced VEGF increase: antagonist 100 nM, U937 derived foam cells
Procedure: as §1, §2

HIF-1α protein = HIF-1α protein accumulation, western blot; conditions: foam cells; for antagonism of adenosine induced HIF-1α protein accumulation: antagonist 100 nM, adenosine 100 μM, hypoxia
Procedure: Hypoxic exposures were done in a modular incubator chamber and flushed with a gas mixture containing 1% O2, 5% CO2 and balance N2 (MiniGalaxy, RSBiotech, Irvine, Scotland).
U937 cells were induced to differentiate into macrophages by treatment with phorbol myristate acetate (PMA, 40 nM) for 72 h. […] All dialyses were carried out with Pierce Slide-A-Lyzer cassettes (10,000 molecular weight cut-off).
Whole cell lysates were prepared as described previously (27). […] In experiments aimed to detect HIF, western blot analyses were performed using antibody against HIF-1α (1:250 dilution) and […] (1:1000 dilution) in 5% non-fat dry milk in PBS/0.1°)/0 Tween-20 overnight at 4° C. The protein concentration was determined using BCA protein assay kit (Pierce, Rockford, Ill.). Tubulin (1:250) was used to ensure equal protein loading. Immunoreactivity was assessed and quantified by using a VersaDoc Imaging System (Bio-Rad).

[1] = adenosine 100 μM, U937 derived foam cells, hypoxic

Structure (SMILES): CCCn1cc2c(nc(NC(=O)Nc3ccc(OC)cc3)n3nc(-c4ccco4)nc23)n1 [MRE-3008F20, 5-N-(4-methoxyphenyl-carbamoyl)amino-8-propyl-2-(2furyl)-pyrazolo-[4,3e]-1,2,4-triazolo[1,5-c]pyrimidine]
- effect on oxLDL and adenosine induced foam cells formation (Oil red O) (PMA-treated U937 cells; antagonist 100 nM): blocked the foam cells formation; also recorded: inhibition of foam cell formation
- block of adenosine-induced IL-8 increase (IL-8; [1]): not
- effect on adenosine-induced VEGF increase (VEGF): strongly reduced
- antagonism of adenosine induced HIF-1α protein accumulation (HIF-1α protein): partially antagonized

Structure (SMILES): COc1ccccc1NC(=O)Nc1nc(-c2cccnc2)nc2ccccc12 [VUF 5574]
- effect on oxLDL and adenosine induced foam cells formation (Oil red O) (PMA-treated U937 cells; antagonist 10 nM): blocked the foam cells formation; also recorded: inhibition of foam cell formation

Structure (SMILES): Nc1nc2c(cnn2CCc2ccccc2)c2nc(-c3ccco3)nn12 [SCH 58261]
- block of adenosine-induced IL-8 increase (IL-8; [1]): not
- effect on adenosine-induced VEGF increase (VEGF): inhibited to lesser extent
- antagonism of adenosine induced HIF-1α protein accumulation (HIF-1α protein): partially antagonized

Structure (SMILES): Nc1ncnc2c1ncn2[C@@H]1O[C@H](CO)[C@@H](O)[C@H]1O [adenosine]
- effect on oxLDL-induced foam cell formation (Oil red O) (PMA-treated U937 cells): increased
- increase of IL-8 levels (IL-8; adenosine 100 μM, supernatant of U937 derived foam cells, hypoxic): 158±10%
- increase of VEGF levels (VEGF; supernatant of U937 derived foam cells): 165±10%

Structure (SMILES): CCNC(=O)[C@H]1O[C@@H](n2cnc3c(Nc4ccc(OCC(=O)Nc5ccccc5)cc4)ncnc32)[C@H](O)[C@@H]1O [1-deoxy-1-[6-{4-[(phenylcarbamoyl)-methoxy]phenylamino}-9H-purin-9-yl]-N-ethyl-β-D-ribofuranuronamide]
- IL-8 secretion (IL-8; A2B receptor agonist 1 μM): 142±8 % of IL-8 secretion
- EC50 (IL-8; Homo sapiens, U-937, dose-response curve, U937 derived foam cells, hypoxic, read-out: EC50 for stimulation of IL-8 secretion): 0.058 ± 0.006 µM
- induction of HIF-1α protein by adenosine receptor agonists (HIF-1α protein; CHA 10, 100 nM, CGS 21680 500, 1000 nM, A2B agonist 10, 100 nM, CI-IB-MECA 10, 100 nM): able to induce HIF-1α protein

Structure (SMILES): CCCn1c(=O)c2[nH]c(C3CCCC3)nc2n(CCC)c1=O [DPCPX, 1,3-dipropyl-8-cyclopentylxanthine]
- block of adenosine-induced IL-8 increase (IL-8; [1]): not

Structure (SMILES): CCCn1c(=O)c2nc(-c3cc(OCC(=O)Nc4ccc5c(c4)OCO5)nn3C)[nH]c2n(CCC)c1=O [MRE-2029F20, N-1,3-benzodioxol-5-yl-2-{[5-(2,6-dioxo-1,3-dipropyl-2,3,6,9-tetrahydro-1H-purin-8-yl)-1-methyl-1H-pyrazol-3-yl]oxy}acetamide]
- effect on oxLDL and adenosine induced foam cells formation (Oil red O) (PMA-treated U937 cells; antagonist 100 nM): blocked the foam cells formation; also recorded: inhibition of foam cell formation
- block of the effect of the A2B receptor agonist (1 μM) on IL-8 secretion (IL-8; U937 derived foam cells): completely blocked
- block of adenosine-induced IL-8 increase (IL-8; [1]): blocked
- effect on adenosine-induced VEGF increase (VEGF): strongly reduced
- antagonism of adenosine induced HIF-1α protein accumulation (HIF-1α protein): partially antagonized

Reference: patent publication US20110118276A1, “METHODS OF TREATING ATHEROSCLEROSIS” (priority 2008, published 2011)
